Source: paper PMC4227718 (Journal of the American Chemical Society, 2014)

Key:
Pin1 = Pin1 (Homo sapiens, UniProt Q13526, S16A/Y23A); test: Fluorescence anisotropy binding to Pin1
HeLa cells = test: MTT cell proliferation assay; format: cell-based; conditions: 0-20 μM, 72 h

For “bicyclo[Tm(D-Ala-Sar-D-Thr-D-Ala-Nal-Arg-Ala-D-Ala)-Dap-(Phe-Nal-Arg-Arg-Arg-Arg-Dap)]-Lys-NH2 [peptide 9]”, the Pin1 inhibitory activity (Pin1) was “abolished the Pin1 inhibitory activity” and the “Effect on HeLa cell growth” value (HeLa cells) was “no effect”.
